From US9730944B2, “Antiviral activity of novel bicyclic heterocycles” (priority 2010, dated 2017)
Converted amounts (≈) assume the structure as drawn. Where two headings read alike, the source gives them in different places.

Legend:
HIV-2 strain (ROD) = assay: Inhibition of replication of HIV-2 (ROD strain) in MT-4 cells, MTT assay; format: cell-based; settings: Human immunodeficiency virus 2, MT4, 120 h, read-out: EC50 (μM) HIV-2 (ROD)
poliovirus (PV type 3) = assay: microbe, parasite or virus in culture; format: cell-based; settings: Enterovirus C, read-out: PV-3 EC50
poliovirus (PV type 2) = assay: microbe, parasite or virus in culture; format: cell-based; settings: Enterovirus C, read-out: PV-2 EC50
in vitro [1] = settings: human, PV CC50
HIV-1 strain IIIB = assay: Inhibition of replication of HIV-1 (IIIB strain) in MT-4 cells, MTT assay; format: cell-based; settings: Human immunodeficiency virus 1, IIIB, MT4, 120 h, read-out: EC50 (μM) HIV-1 (IIIB)
in vitro [2] = settings: human
in vitro [3] = settings: African green monkey, PV CC50
poliovirus (PV type 1) = assay: microbe, parasite or virus in culture; format: cell-based; settings: Enterovirus C, read-out: PV-1 EC50
[4] = MT-4 cells, MTT assay, five days after infection, 50% protection from cytopathic effect

| Structure (SMILES) | EC50 (HIV-2 strain (ROD); [4]) | EC50 (poliovirus (PV type 3); HeLa) | EC50 (poliovirus (PV type 3); Vero) | EC50 (poliovirus (PV type 2); HeLa) | EC50 (poliovirus (PV type 2); Vero) | CC50 (in vitro [1]) | EC50 (HIV-1 strain IIIB; [4]) | CC50 (in vitro [2]) | CC50 (in vitro [3]) | EC50 (poliovirus (PV type 1); HeLa) | EC50 (poliovirus (PV type 1); Vero) | EC50 (HIV-2 strain (ROD)) | EC50 (HIV-1 strain IIIB) |
| --- | --- | --- | --- | --- | --- | --- | --- | --- | --- | --- | --- | --- | --- |
| Nc1nc(N2CCN(C(=O)COc3ccc(Cl)cc3)CC2)c2nc(C(Cc3ccccc3)c3ccc(F)cc3)sc2n1 (stereo not drawn) [Example 67, 1-(4-(5-amino-2-(1-(4-fluorophenyl)-2-phenylethyl)thiazolo[5,4-d]pyrimidin-7-yl)piperazin-1-yl)-2-(4-chlorophenoxy)ethanone] | > 50 µM | > 50 µg/mL | > 50 µg/mL | ≥ 50 µg/mL | 11.9 µg/mL (≈ 19.7 µM) | > 50 µg/mL | > 50 µM | > 50 µM | 114 µg/mL (≈ 189 µM) | > 50 µg/mL | > 50 µg/mL |  |  |
| COCCN1CCN(c2nc(N)nc3oc(-c4ccc(F)cc4)nc23)CC1 [Example 192, 5-amino-2-(4-fluorophenyl)-7-[4-(2-methoxyethyl)-piperazin-1-yl]-oxazolo[5,4-d]pyrimidine] |  | > 50 µg/mL | > 50 µg/mL | > 50 µg/mL | ≥ 50 µg/mL | > 50 µg/mL |  |  | 100 µg/mL (≈ 269 µM) | > 50 µg/mL | > 50 µg/mL |  |  |
| Nc1nc(N2CCN(C(=O)COc3ccc(Cl)cc3)CC2)c2nc(CCc3ccc(F)cc3)oc2n1 [Example 172, 1-(4-(5-amino-2-(4-fluorophenethyl)oxazolo[5,4-d]pyrimidin-7-yl)piperazin-1-yl)-2-(4-chlorophenoxy)ethanone] |  | > 50 µg/mL | 4.36 µg/mL (≈ 8.53 µM) | 15.6 µg/mL (≈ 30.6 µM) | 1.11 µg/mL (≈ 2.17 µM) | > 50 µg/mL |  | 32 µM | 76.2 µg/mL (≈ 149 µM) | 32 µg/mL (≈ 62.6 µM) | 1.16 µg/mL (≈ 2.27 µM) | ≥ 32 µM | 1.82 µM |
| CCOC(=O)c1nc(N2CCN(C(=O)Nc3cccc(C)c3)CC2)c2cc(-c3ccc(F)cc3)sc2n1 [Example 361, ethyl 6-(4-fluorophenyl)-4-(4-(m-tolylcarbamoyl)piperazin-1-yl)thieno[2,3-d]pyrimidine-2-carboxylate] |  | > 50 µg/mL | > 50 µg/mL | ≥ 50 µg/mL | > 50 µg/mL | > 50 µg/mL |  | 156 µM | 61.7 µg/mL (≈ 119 µM) | > 50 µg/mL | > 50 µg/mL | ≥ 156 µM | ≥ 156 µM |
| Nc1nc(N2CCN(C(=O)COc3ccc(Cl)cc3)CC2)c2cc(-c3ccc(F)cc3)sc2n1 [Example 326, 1-(4-(2-amino-6-(4-fluorophenyl)thieno[2,3-d]pyrimidin-4-yl)piperazin-1-yl)-2-(4-chlorophenoxy)ethanone] | 4.84 µM | 0.13 µg/mL (≈ 0.261 µM) | 0.17 µg/mL (≈ 0.341 µM) | 0.051 µg/mL (≈ 0.102 µM) | 0.023 µg/mL (≈ 0.0462 µM) | 35.2 µg/mL (≈ 70.7 µM) | > 27.7 µM | 27.7 µM | 102 µg/mL (≈ 205 µM) | 0.13 µg/mL (≈ 0.261 µM) | 0.037 µg/mL (≈ 0.0743 µM) |  |  |
| Nc1nc(N2CCN(C(=O)CCOc3ccc(F)cc3)CC2)c2nc(CCc3ccc(F)cc3)sc2n1 [Example 55, 1-(4-(5-amino-2-(4-fluorophenethyl)thiazolo[5,4-d]pyrimidin-7-yl)piperazin-1-yl)-3-(4-fluorophenoxy)propan-1-one] | > 57.1 µM | > 50 µg/mL | > 50 µg/mL | ≥ 50 µg/mL | ≥ 50 µg/mL | > 50 µg/mL | > 57.1 µM | 57.1 µM | 94.9 µg/mL (≈ 181 µM) | > 50 µg/mL | > 50 µg/mL |  |  |
| Cc1cccc(OCC(=O)N2CCN(c3nc(N)nc4sc(CCc5ccc(F)cc5)nc34)CC2)c1 [Example 53, 1-(4-(5-amino-2-(4-fluorophenethyl)thiazolo[5,4-d]pyrimidin-7-yl)piperazin-1-yl)-2-(m-tolyloxy)ethanone] | > 7.96 µM | > 16.7 µg/mL | 1.4 µg/mL (≈ 2.76 µM) | 9.73 µg/mL (≈ 19.2 µM) | 0.14 µg/mL (≈ 0.276 µM) | > 50 µg/mL | > 7.96 µM | 201 µM | > 150 µg/mL | 0.41 µg/mL (≈ 0.809 µM) | 0.12 µg/mL (≈ 0.237 µM) |  |  |
| C[C@@]1(O)[C@H](O)[C@@H](CO)O[C@H]1n1ccc(N)nc1=O [2′-C-methylcytidine] |  | 11.4 µg/mL (≈ 44.4 µM) | 15.3 µg/mL (≈ 59.6 µM) | 7.27 µg/mL (≈ 28.3 µM) | 4.6 µg/mL (≈ 17.9 µM) | > 50 µg/mL |  |  | > 150 µg/mL | 3.74 µg/mL (≈ 14.5 µM) | 3.58 µg/mL (≈ 13.9 µM) |  |  |
| Nc1nc(N2CCN(C(=O)COc3ccc(Cl)cc3)CC2)c2nc(C3CC3)oc2n1 [Example 185, 5-amino-2-cyclopropyl-7-[4-(4-chlorophenoxyacetyl)piperazin-1-yl]-oxazolo[5,4-d]pyrimidine] |  | > 50 µg/mL | > 50 µg/mL | ≥ 50 µg/mL | 5.48 µg/mL (≈ 12.8 µM) | > 50 µg/mL |  |  | 97.7 µg/mL (≈ 228 µM) | 0.4 µg/mL (≈ 0.933 µM) | 2.17 µg/mL (≈ 5.06 µM) |  |  |
| CC(C)S(=O)(=O)n1c(N)nc2ccc(/C(=N/O)c3ccccc3)cc21 [Enviroxime] |  | 0.12 µg/mL (≈ 0.335 µM) | 1.03 µg/mL (≈ 2.87 µM) | 0.041 µg/mL (≈ 0.114 µM) | 0.04 µg/mL (≈ 0.112 µM) | 21.2 µg/mL (≈ 59.3 µM) |  |  | > 150 µg/mL | 0.13 µg/mL (≈ 0.363 µM) | 0.11 µg/mL (≈ 0.307 µM) |  |  |
| CC(=O)N1CCN(c2nc(N)nc3oc(-c4ccc(F)cc4)nc23)CC1 [Example 191, 5-amino-2-(4-fluorophenyl)-7-(4-acetylpiperazin-1-yl)-oxazolo[5,4-d]pyrimidine] |  | > 50 µg/mL | > 50 µg/mL | ≥ 50 µg/mL | 21.6 µg/mL (≈ 60.6 µM) | > 50 µg/mL |  |  | 112 µg/mL (≈ 313 µM) | 28.6 µg/mL (≈ 80.3 µM) | 27.5 µg/mL (≈ 77.1 µM) |  |  |
| O=C(COc1ccc(Cl)cc1)N1CCN(c2ncnc3sc(-c4ccc(F)cc4)cc23)CC1 [Example 312, 2-(4-chlorophenoxy)-1-(4-(6-(4-fluorophenyl)thieno[2,3-d]pyrimidin-4-yl)piperazin-1-yl)ethanone] |  | > 1.85 µg/mL | 2.05 µg/mL (≈ 4.24 µM) | 1.28 µg/mL (≈ 2.65 µM) | 0.68 µg/mL (≈ 1.41 µM) | > 50 µg/mL |  |  | 116 µg/mL (≈ 240 µM) | 3.77 µg/mL (≈ 7.81 µM) | 1.12 µg/mL (≈ 2.32 µM) |  |  |
| COc1ccc(OCC(=O)N2CCN(c3ncnc4sc(CCc5ccc(F)cc5)nc34)CC2)cc1 [Example 302, 1-(4-(2-(4-fluorophenethyl)thiazolo[5,4-d]pyrimidin-7-yl)piperazin-1-yl)-2-(4-methoxyphenoxy)ethanone] |  | < 0.023 µg/mL | 0.085 µg/mL (≈ 0.167 µM) | < 0.023 µg/mL | < 0.023 µg/mL | > 50 µg/mL |  |  | 50 µg/mL (≈ 98.5 µM) | < 0.023 µg/mL | < 0.023 µg/mL |  |  |
| CCCCc1nc(N2CCN(C(=O)COc3ccc(Cl)cc3)CC2)c2cc(-c3ccc(F)cc3)sc2n1 [Example 313, 1-(4-(2-butyl-6-(4-fluorophenyl)thieno[2,3-d]pyrimidin-4-yl)piperazin-1-yl)-2-(4-chlorophenoxy)ethanone] |  | > 50 µg/mL | > 50 µg/mL | ≥ 50 µg/mL | ≥ 50 µg/mL | > 50 µg/mL |  |  | > 150 µg/mL | > 50 µg/mL | > 50 µg/mL |  |  |
| CC(C)CN1CCN(c2nc(N)nc3oc(-c4ccc(F)cc4)nc23)CC1 [Example 190, 5-amino-2-(4-fluorophenyl)-7-(4-isobutylpiperazin-1-yl)-oxazolo[5,4-d]pyrimidine] |  | 1.13 µg/mL (≈ 3.05 µM) | 2.79 µg/mL (≈ 7.53 µM) | 1.17 µg/mL (≈ 3.16 µM) | 1.02 µg/mL (≈ 2.75 µM) | 32.3 µg/mL (≈ 87.2 µM) |  |  | 130 µg/mL (≈ 352 µM) | 1.15 µg/mL (≈ 3.1 µM) | 1.08 µg/mL (≈ 2.92 µM) |  |  |
